According to patent US8697641B2, “4-amino-4-oxobutanoyl peptide cyclic analogues, inhibitors of viral replication” (Achillion Pharmaceuticals, Inc., priority 2008, dated 2014):

tested on: Hepatitis C replicon; experiment: HCV replicon assay (NPT ELISA readout) in Huh-7 replicon-containing cells; format: cell-based, Hepatitis C virus; settings: Hepatitis C virus, 72 h; HCV replicon in Huh-7 cells, three days incubation
Method in brief: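 Huh-7 cells carrying a neo-containing HCV subgenomic replicon (NS3-NS5B) were plated overnight, then exposed to compound (generally 6 concentrations, 10 to 0.03 μM) for three days at 37 °C. Replication was read as NPT level by captured ELISA; interferon alpha served as positive control.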

First: O=C1N[C@]2(C(=O)NS(=O)(=O)C3CC3)C[C@H]2/C=C\CCCCC[C@H](CC(=O)N2CCCC(F)(F)C2)C(=O)N2C[C@H](Oc3cc(-c4ccccn4)nc4c5c(ccc34)CCC5)C[C@@H]12 [Compound 127, (2R,6R,13aS,16aS,Z)-N-(cyclopropylsulfonyl)-6-(2-(3,3-difluoropiperidin-1-yl)-2-oxoethyl)-5,16-dioxo-2-(2-(pyridin-2-yl)-8,9-dihydro-7H-cyclopenta[h]quinolin-4-yloxy)-1,2,3,5,6,7,8,9,10,11, 13a,14,14a,15,16,16a-hexadecahydrocyclopropa [e]pyrrolo[1,2-a][1,4] diazacyclopentadecine-14a-carboxamide]
Second: COc1ccc2c(O[C@@H]3C[C@H]4C(=O)N[C@]5(C(=O)NS(=O)(=O)C6CC6)C[C@H]5/C=C\CCCCC[C@H](CC(=O)N5CCCC(F)(F)C5)C(=O)N4C3)nc(-c3ccccn3)cc2c1Cl [Compound 130, (2R,6R,14aR,16aS,Z)-2-(5-chloro-6-methoxy-3-(pyridin-2-yl)isoquinolin-1-yloxy)-N-(cyclopropylsulfonyl)-6-(2-(3,3-difluoropiperidin-1-yl)-2-oxoethyl)-5,16-dioxo-1,2,3,5,6,7,8,9,10,11, 13a,14,14a,15,16,16a-hexadecahydrocyclopropa [e]pyrrolo[1,2-a][1,4] diazacyclopentadecine-14a-carboxamide]
The EC50 of the first is higher: > 10000 nM for the first, < 1000 nM for the second. The second is the more potent here.

`COc1ccc2c(O[C@@H]3C[C@H]4C(=O)N[C@]5(C(=O)NS(=O)(=O)C6CC6)C[C@H]5/C=C\CCCCC[C@H](CC(=O)N5CCCC(F)(F)C5)C(=O)N4C3)cc(-c3nc(C(C)C)cs3)nc2c1C` [Compound 128, (2R,6R,14aR,16aS,Z)-N-(cyclopropylsulfonyl)-6-(2-(3,3-difluoropiperidin-1-yl)-2-oxoethyl)-2-(2-(4-isopropylthiazol-2-yl)-7-methoxy-8-methylquinolin-4-yloxy)-5,16-dioxo-1,2,3,5,6,7,8,9,10,11, 13a,14,14a,15,16,16a-hexadecahydrocyclopropa [e]pyrrolo[1,2-a][1,4] diazacyclopentadecine-14a-carboxamide] and `COc1ccc2c(O[C@@H]3C[C@H]4C(=O)N[C@]5(C(=O)NS(=O)(=O)C6CC6)C[C@H]5/C=C\CCCCC[C@H](CC(=O)N5CCCC(F)(F)C5)C(=O)N4C3)cc(-c3csc(C(C)C)n3)nc2c1C` [Compound 133, (2R,6R,14aR,16aS,Z)-N-(cyclopropylsulfonyl)-6-(2-(3,3-difluoropiperidin-1-yl)-2-oxoethyl)-2-(2-(2-isopropylthiazol-4-yl)-7-methoxy-8-methylquinolin-4-yloxy)-5,16-dioxo-1,2,3,5,6,7,8,9,10,11, 13a,14,14a,15,16,16a-hexadecahydrocyclopropa [e]pyrrolo[1,2-a][1,4] diazacyclopentadecine-14a-carboxamide] cannot be ordered by EC50: < 1000 nM for the first, < 1000 nM for the second.

First: COc1ccc2c(O[C@@H]3C[C@H]4C(=O)N[C@]5(C(=O)NS(=O)(=O)C6CC6)C[C@H]5/C=C\CCCCC[C@H](CC(=O)N5CCCC(F)(F)C5)C(=O)N4C3)cc(-c3cccnc3)nc2c1C [Compound 129, (2R,6R,14aR,16aS,Z)-N-(cyclopropylsulfonyl)-6-(2-(3,3-difluoropiperidin-1-yl)-2-oxoethyl)-2-(7-methoxy-8-methyl-2-(pyridin-3-yl)quinolin-4-yloxy)-5,16-dioxo-1,2,3,5,6,7,8,9,10,11, 13a,14,14a,15,16,16a-hexadecahydrocyclopropa [e]pyrrolo[1,2-a][1,4] diazacyclopentadecine-14a-carboxamide]
Second: COc1ccc2c(O[C@@H]3C[C@H]4C(=O)N[C@]5(C(=O)NS(=O)(=O)C6CC6)CC5/C=C\CCCCC[C@H](CC(=O)N5CCC(C(F)(F)F)CC5)C(=O)N4C3)cc(-c3cccnc3)nc2c1C (stereo partly drawn) [Compound 131, (2R,6R,14aR,16aS,Z)-N-(cyclopropylsulfonyl)-2-(7-methoxy-8-methyl-2-(pyridin-3-yl)quinolin-4-yloxy)-5,16-dioxo-6-(2-oxo-2-(4-(trifluoromethyl)piperidin-1-yl)ethyl)-1,2,3,5,6,7,8,9,10,11, 13a,14,14a,15,16,16a-hexadecahydrocyclopropa [e]pyrrolo[1,2-a][1,4] diazacyclopentadecine-14a-carboxamide]
The EC50 of the first is higher: > 10000 nM for the first, < 1000 nM for the second. The second is the more potent here.

With `COc1ccc2c(O[C@@H]3C[C@H]4C(=O)N[C@]5(C(=O)NS(=O)(=O)C6CC6)C[C@H]5/C=C\CCCCC[C@H](CC(=O)N5CCC(C(F)(F)F)CC5)C(=O)N4C3)nc(-c3ccccn3)cc2c1Cl` [Compound 132, (2R,6R,14aR,16aS,Z)-2-(5-chloro-6-methoxy-3-(pyridin-2-yl)isoquinolin-1-yloxy)-N-(cyclopropylsulfonyl)-5,16-dioxo-6-(2-oxo-2-(4-(trifluoromethyl)piperidin-1-yl)ethyl)-1,2,3,5,6,7,8,9,10,11, 13a,14,14a,15,16,16a-hexadecahydrocyclopropa [e]pyrrolo[1,2-a][1,4] diazacyclopentadecine-14a-carboxamide] the EC50 was < 1000 nM.
